As a reminder, the Ki is a dissociation constant, usually derived from enzyme kinetics or from competition with a known ligand. Read a low Ki as higher affinity.

“And” between values parts separate entries of the source, which are not always exact repeats. Equal entries are not always repeated. Where two headings read alike, the source gives them in different places.

The target in test [1] is T1, NMDA receptor glycine site (Rattus norvegicus, UniProt P35439).
T1 construct: The rat brain membranes used in the experiments were obtained from Analytical Biological Services Inc; tissue Analytical Biological Services Inc; host or cells: rat brain membranes (cerebral cortex and hippocampus, male Sprague Dawley rats)
Nature of the test: Test A: Inhibition of binding of [3H]-MDL105,519 to brain membranes. An excerpt: Test A: Inhibition of Binding of [^3H]-MDL105,519:
Binding of compounds to the NMDA receptor glycine site may be assessed by measuring the ability of test compounds to inhibit the binding of tritiated MDL105,519 to brain membranes bearing the receptor.
Briefly, fresh brain tissue including cerebral cortex and hippocampus from male Sprague Dawley rats was homogenized in 0.32 M sucrose and centrifuged at low speed to separate cellular membranes from other cellular components. The membranes were then washed 3 times using deionized water, followed by treatment with 0.04% Triton X-100. Finally, membranes were washed six times in 50 mM Tris citrate buffer, pH 7.4, and frozen at −80° C. until use.
[^3H]MDL105,519 (72 Ci/mmol) was purchased from Amersham. Cold MDL105,519 was purchased from Sigma/RBI. […] On the day of the experiment, brain membranes were thawed at room temperature and suspended in 50 mM tris acetate buffer, pH 7.4 (“TAB”). Seventy-five micro grams per milliliter protein (by using the BioRad dye) were used for competition binding. The experiments were carried out using 96-well plates. […] Non specific binding was determined by using 100 μM of unlabeled MDL105,519. […] After incubation, unbound [^3H]MDL105,519 was removed by filtration onto GF/B Unifilter plates using a Packard harvester. Filters were washed four times with ice cold TAB (total of 1.2 mL buffer). The plates were dried overnight at room temperature and bound radioactivity was measured on a Packard TopCount after the addition of 45 μL per well of the MICROSCINT O.
Human Brain Membranes: Human brain membranes were obtained from Analytical Biological Services Inc., and assays were performed as described for rat membranes.
Data analysis: Data was analyzed using a Microsoft Excel spreadsheet and GraphPad Prizm software and potency of compounds is expressed as the Ki (nM).

Test [2] relates to formalin-induced nociceptive behaviors in rats. The test is described as follows: Test B: Formalin test (formalin-induced paw flinches). The test is classed as in vivo, rat. The following applies: dose 200 (unit not given), dosed three hours prior to formalin. An excerpt:
The Formalin test is an assay that assesses the capacity of a compound to inhibit formalin-induced nociceptive behaviors in rats (D. Dubuisson, et al., Pain 4, 161-174 (1977); H. Wheeler-Aceto et al., Psychopharmacology 104, 3544 (1991); T. J. Coderre, et al., Pain 54, 43-50 (1993)). In the test, two distinctive phases of formalin-induced behaviors are observed. A first phase response, caused by acute nociception to the noxious chemical (formalin) injected into the paw, occurs between zero and five minutes. A quiescent period of 5 to 15 min post injection follows. After the quiescent period a second phase response, caused by sensitization of the central neurons in the dorsal horn, occurs after 15 minutes and lasts up to 60 minutes. Sensitization of the central neurons in the spine augments a noxious afferent input and causes a stronger pain barrage to be transmitted to the brain. Therefore, inhibition of the second phase response indicates a central mechanism of drug action.
The procedure for the formalin test is as follows: male rats are placed in a plexiglass chamber and observed for 30-45 min. to observe their baseline activity. Animals are either pretreated with vehicle or with different doses of a test compound. Animals are dosed with vehicle or test compound three hours prior to injection of 0.05 mL of sterile 1% formalin under the dorsal skin of a hind paw. The number of paw flinches (responses) during the first phase (0-5 min.) and the second phase (20-35 min.) are scored and recorded. Flinch response is compared with the mean score of a saline control group and calculated as percentage inhibition. The ED50 is the dose of compound which produces 50% inhibition of nociceptive response in the first or second phase response. First phase responses may be inhibited by compounds that act peripherally and by compounds that act centrally. Second phase response are inhibited by centrally active compounds.
Student's t-test was used for statistical analysis to determine the significance of compound effects. Data are reported as a dose that yielded a % inhibition of a response.

The test system of test [3] is CCI rats (thermal hyperalgesia). The test is described as follows: Test C: Neuropathic pain model (Chronic Constriction Injury), thermal hyperalgesia, paw withdrawal latency. Format: in vivo, rat. The following applies: oral; for Test C (% Inh.): percent decrease in hyperalgesia: at the MED; for Test C MED (minimum effective dose): three times daily for 5 days. An excerpt: Test C: Neuropathic Pain Model (Chronic Constriction Injury):
The anti-hyperalgesic properties of a compound may be tested with the Chronic Constriction Injury (“CCI”) model. The test is a model for neuropathic pain associated with nerve injuries that can arise directly from trauma and compression, or indirectly from a wide range of diseases such as infection, cancer, metabolic conditions, toxins, nutritional deficiencies, immunological dysfunction, and musculoskeletal changes. In the model a unilateral peripheral hyperalgesia is produced in rats by nerve ligation (G. J. Bennett, et al., Pain 33, 87-107 (1988)).
Procedurally, Sprague-Dawley rats (250-350 g) are anesthetized with sodium pentobarbital and the common sciatic nerve is exposed at the level of the mid thigh by blunt dissection through the biceps femoris. A section of nerve (about 7 mm), proximal to the sciatic trifucation, is freed of tissue and ligated at four positions with chromic gut suture. The suture is tied with about 1 mm spacing between ligatures. The incision is closed in layers and the animals are allowed to recuperate. Thermal hyperalgesia is measured using a paw-withdrawal test (K. Hargreaves, et al., Pain 32, 77-88 (1988)). To perform the test, animals are habituated on an elevated glass floor. A radiant heat source is aimed at the mid-plantar hindpaw (sciatic nerve territory) through the glass floor with a 20 second cut-off used to prevent injury to the skin. The latencies for the withdrawal reflex in both hind paws are recorded.
Injured paws with ligated nerves show shorter paw withdrawal latencies compared to the uninjured or sham operated paws. Responses to test compounds are evaluated at different times after oral administration to determine the onset and duration of compound effect. When performing the test, groups of CCI rats receive either vehicle or the test compound orally three times daily for 5 days. Paw withdrawal latencies are measured each day 10 min before and 2 or 3 hr. after the first daily dose. Compound efficacy is expressed as mean percentage decrease of hyperalgesia compared to that of vehicle-treated animals, calculated as follows:
(Mean of vehicle group−Mean of compound group)×100/(Mean of vehicle group).
Data analysis was performed by the multiple means comparison test (Dunnett's test) and results are expressed and compound potencies are expressed as the MED (minimum effective dose), in mg/Kg/day, that yields a percent (%) decrease in hyperalgesia that is statistically significant.

Setting [4] is: inhibition of 1.2 nM [3H]MDL105,519 binding, brain membranes (rat or human not given).

In turn, `O=C(Nc1ccccc1)Nc1cccc(Cn2nc(O)c3[nH]c4cc(Cl)ccc4c(=O)c3c2=O)c1` [Ex. 18, 7-chloro-4-hydroxy-2-(3-phenylaminocarboxamide)phenylmethyl-1,2,5,10-tetrahydropyridazino[4,5-b]quinoline-1,10-dione] came in with a Ki in test [1] (setting [4]) of 79.9 nM.
On the same count and under the same terms, the value for `CC(C)NC(=O)c1ccc(Cn2nc(O)c3[nH]c4cc(Cl)ccc4c(=O)c3c2=O)cc1` [EX. 31, 7-chloro-4-hydroxy-2-(4-isopropylcarboxamide)phenylmethyl-1,2,5,10-tetrahydropyridazino[4,5-b]quinoline-1,10-dione] was 41 nM; that for `O=c1c2ccc(Cl)cc2[nH]c2c(O)nn(Cc3ccc4nc[nH]c4c3)c(=O)c12` [Ex. 5, 7-Chloro-4-hydroxy-2-(benzimidazol-5-ylmethyl)-1,2,5,10-tetrahydropyridazino[4,5-b]quinoline-1,10-dione methanesulfonate] was 117 nM; that for `CNC(=O)c1cccc(Cn2nc(O)c3[nH]c4cc(Cl)ccc4c(=O)c3c2=O)c1` [Ex. 25, 7-Chloro-4-hydroxy-2-[3-(methylaminocarbonyl)-benzyl]-1,2,5,10-tetrahydropyridazino[4,5-b]quinoline-1,10-dione] was 126 nM.
In turn, `CC(C)OC(=O)c1ccc(Cn2nc(O)c3[nH]c4cc(Cl)ccc4c(=O)c3c2=O)cc1` [Ex. 9, 7-Chloro-4-hydroxy-2-(4-iso-propoxycarbonylbenzyl)-1,2,5,10-tetrahydropyridazino[4,5-b]quinoline-1,10-dione] gave a Ki in test [1] (setting [4]) of 91 nM.
In test [1] (setting [4]), `O=C(Nc1ccc(Cn2nc(O)c3[nH]c4cc(Cl)ccc4c(=O)c3c2=O)cc1)N1CCCC1` [Ex. 13, 7-chloro-4-hydroxy-2-(4pyrrolidinylcarboxamide)phenylmethyl-1,2,5,10-tetrahydropyridazino[4,5-b]quinoline-1,10-dione] yielded an inhibition constant (Ki) of 67.5 nM.
On the same count and under the same terms, to `O=c1c2ccc(Cl)cc2[nH]c2c(O)nn(Cc3ccc(I)cc3)c(=O)c12` [Ex. 20, 7-Chloro-4-hydroxy-2-(4-iodophenylmethyl)-1,2,5,10-tetrahydropyridazino[4,5-b]quinoline-1,10-dione] belongs 199 nM; to `Cc1cc(Cn2nc(O)c3[nH]c4cc(Cl)ccc4c(=O)c3c2=O)ccc1O` [Ex. 6, 7-Chloro-4-hydroxy-2-(4-hydroxy-3-methyl-benzyl)-1,2,5,10-tetrahydropyridazino[4,5-b]quinoline-1,10-dione], 67.9 nM and 62.5 nM; to `O=C(c1ccc(Cn2nc(O)c3[nH]c4cc(Cl)ccc4c(=O)c3c2=O)cc1)N1CCOCC1` [Ex. 29, 7-Chloro-4-hydroxy-2-[4-(morpholine-4-carbonyl)-benzyl]-1,2,5,10-tetrahydropyridazino[4,5-b]quinoline-1,10-dione], 88 nM.
Still for that read-out and setting: the value for `CC(=O)Nc1ccc(Cn2nc(O)c3[nH]c4cc(Cl)ccc4c(=O)c3c2=O)cc1` [Ex. 30, 7-Chloro-4-hydroxy-2-[4-(methylcarbonyl-amino)-benzyl]-1,2,5,10-tetrahydropyridazino[4,5-b]quinoline-1,10-dione] was 98 nM; that for `CON(C)C(=O)c1cccc(Cn2nc(O)c3[nH]c4cc(Cl)ccc4c(=O)c3c2=O)c1` was 65 nM.
`O=c1c2ccc(Cl)cc2[nH]c2c(O)nn(Cc3ccc(C#CCO)cc3)c(=O)c12` [Ex. 21]: the Ki in test [1] (setting [4]) is 1 nM.
Compound `O=C(NCc1ccco1)c1ccc(Cn2nc(O)c3[nH]c4cc(Cl)ccc4c(=O)c3c2=O)cc1` [Ex. 3, 7-Chloro-4hydroxy-2-(4-(furan-2-ylmethyl)aminocarbonyl)-benzyl-1,2,5,10-tetrahydropyridazino[4,5-b]quinoline-1,10-dione] showed an inhibitory constant (Ki) in test [1] of 153 nM. Further, the “Test B First phase Dose (% Inh.): % inhibition of nociceptive response” value in test [2] (first phase (0-5 min)) is 200 (33%). In addition, the “Test B Second phase Dose (% Inh.): % inhibition of nociceptive response” value in test [2] (second phase (20-35 min)) was 200 (−18%). Further, in test [3], the “Test C (% Inh.): percent decrease in hyperalgesia” value amounted to 96% and the “Test C MED (minimum effective dose)” value is 30 mg/kg/day.
In turn, `O=C(Nc1cccc(Cn2nc(O)c3[nH]c4cc(Cl)ccc4c(=O)c3c2=O)c1)N1CCCC1` [Ex. 15, 7-Chloro-4-hydroxy-2-(3-pyrrolidinylcarboxamide)phenylmethyl-1,2,5,10-tetrahydropyridazino[4,5-b]quinoline-1,10-dione] registered a Ki in test [1] (setting [4]) of 15.6 nM.
`COCCNC(=O)c1ccc(Cn2nc(O)c3[nH]c4cc(Cl)ccc4c(=O)c3c2=O)cc1` [Ex. 23] gave a Ki in test [1] (setting [4]) of 141 nM.
Take `CN(C)C(=O)Nc1ccc(Cn2nc(O)c3[nH]c4cc(Cl)ccc4c(=O)c3c2=O)cc1` [Ex. 11, 7-chlorohydroxy-2-(4-dimethylaminocarboxamide)phenylmethyl-1,2,5,10-tetrahydropyridazino[4,5-b]quinoline-1,10-dione]: in test [3], the “Test C (% Inh.): percent decrease in hyperalgesia” value turned out to be 80% and the “Test C MED (minimum effective dose)” value was found to be 15 mg/kg/day.
As to `COC(=O)c1c(OC)cc(Cn2nc(O)c3[nH]c4cc(Cl)ccc4c(=O)c3c2=O)cc1OC` [Ex. 8, 7-Chloro-2-(4-(2,6-dimethoxy)methylbenzoate)4hydroxy-1,2,5,10-tetrahydropyridazino[4,5-b]quinoline-1,10-dione], in test [1] (setting [4]), the Ki was determined as 35 nM.
`O=C(Nc1cccc(Cn2nc(O)c3[nH]c4cc(Cl)ccc4c(=O)c3c2=O)c1)NC1CCCCC1` [Ex. 19, 7-chloro-4-hydroxy-2-(3-cyclohexylaminocarboxamide)phenylmethyl-1,2,5,10-tetrahydropyridazino[4,5-b]quinoline-1,10-dione] yielded a Ki in test [1] (setting [4]) of 33.3 nM.
In turn, `COCCN(CCOC)C(=O)c1cccc(Cn2nc(O)c3[nH]c4cc(Cl)ccc4c(=O)c3c2=O)c1` [Ex. 27, 7-Chloro-4-hydroxy-2-[3-(di-(2-methoxy)ethyl)aminocarbonylbenzyl]-1,2,5,10-tetrahydropyridazino[4,5-b]quinoline-1,10-dione] showed a Ki in test [1] (setting [4]) of 191 nM.
